# Laboratory results reported in patent US12528767B2, “HDAC6 inhibitors and uses thereof” (Eikonizo Therapeutics, Inc., priority 2019, dated 2026).
# Key:
# [1] = tested on: tubulin acetylation (acTubK40) in undifferentiated SH-SY5Y cells; assay: Tubulin acetylation in cells (Western immunoblot); assay type: cell-based; conditions: Homo sapiens, 4 hours, acetylTubulin/Tubulin ratio
# Protocol: (§1) Compound EC50 Determination for Tubulin- and Histone H3 Acetylation in Cells
# (§2) Estimation of the EC50 for exemplary compounds to alter target protein acetylation in undifferentiated SH-SY5Y cells was performed using standard Western immunoblotting methods. […] SH-SY5Y cells were grown to 90% confluency on sterile cell growth plates. 10 mM compound stocks prepared in DMSO and two-fold serial dilutions were prepared from the stock and applied to cells to achieve a 12-point concentration range in cell media from an upper limit of 10 μM to a lower limit of DMSO [zero compound].
# (§3) Cells were incubated under normal growth conditions (37° C., 5% CO2) in the presence of compound for 4 hours, then media was aspirated and cells were rinsed two times with 1×DPBS with calcium and magnesium warmed to 37° C. Cells were frozen directly on the plates on a bed of dry ice for 5 min, then stored at −80° C. until protein extraction.
# (§4) Protein extraction was performed in RIPA buffer (50 mM Tris-HCL pH 8.0, 150 mM NaCl, 0.5% sodium deoxycholate, 0.1% sodium dodecyl sulfate, 1% NP-40) supplemented with Pierce protease inhibitor mini tables (Thermofisher cat #A32953) exactly as described by the manufacturer. After thawing the plate on a bed of wet ice for 10 minutes, lysis buffer was added to each well (e.g. 100 μL per well of a 24-well plate) and cells scraped from the bottom of each well. Lysates were then sonicated over ice (40% power, 30 pulses of 1 second on, 2 seconds off), centrifuged at 16,000 g for 10 min at 4° C., and the clarified supernatant saved. Protein concentration was determined by BCA assay and at least 3 μg prepared per lane by combining lysate supernatant aliquot with 1/3 total volume of 3× gel loading buffer containing DTT (NEB Cat. #B7703S), heating for 5 minutes at 95° C., briefly centrifuging and then loading on an SDS-PAGE gel.
# (§5) Proteins were resolved on a 4-20% Tris-Glycine gel and transferred to PVDF membrane using an iBlot2 dry transfer system. The membrane was then blocked for at least 30 minutes at room temperature in TBST containing 5% milk or 5% bovine serum albumin, then incubated overnight at 4° C. with a single primary antibody from the following table:
# (§6) Following primary antibody incubation, membranes were washed, incubated in secondary antibody, washed and incubated in ECL prime western blotting detection reagent (Amersham #RPN223) with membrane exposure and ECL signal capture in a LI-COR Odyssey Imaging system. […] Subsequent densitometry of immunoreactive bands was performed using the ImageStudio software and Microsoft Excel resulting in the following ratios: acetylTubulin/Tubulin and acetyl histone H3K9/histone H3. Raw ratios were uploaded to GraphPad Prism v7.0 with EC50 values modeled using the variable slope equation for log-transformed data [log(agonist) vs response in Prism].
# [2] = tested on: histone H3 acetylation (acH3K9) in undifferentiated SH-SY5Y cells; assay: Histone H3 acetylation in cells (Western immunoblot); assay type: cell-based; conditions: Homo sapiens, 4 hours, acetyl histone H3K9/histone H3 ratio
# Protocol: as §1, §2, §3, §4, §5, §6
# [3] = molecular target: Human HDAC9 a.a. 604-1066 (Homo sapiens, UniProt Q9UKV0)
# Full length Human HDAC1 = Full length Human HDAC1 (Homo sapiens, UniProt Q13547)
# Full length Human HDAC2 = Full length Human HDAC2 (Homo sapiens, UniProt Q92769)
# Full length Human HDAC11 = molecular target: T1, Full length Human HDAC11 (Homo sapiens, UniProt Q96DB2)
# T1 sequence (Q96DB2 1-347): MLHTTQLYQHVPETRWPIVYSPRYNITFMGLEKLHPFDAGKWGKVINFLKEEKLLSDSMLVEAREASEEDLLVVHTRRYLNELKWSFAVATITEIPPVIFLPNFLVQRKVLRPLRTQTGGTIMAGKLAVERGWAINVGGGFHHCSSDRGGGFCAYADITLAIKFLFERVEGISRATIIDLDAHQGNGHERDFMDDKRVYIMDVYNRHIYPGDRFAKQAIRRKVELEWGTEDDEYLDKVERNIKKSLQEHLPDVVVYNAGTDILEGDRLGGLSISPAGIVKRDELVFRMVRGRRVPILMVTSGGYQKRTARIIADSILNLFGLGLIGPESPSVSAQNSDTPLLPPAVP
# [4] = molecular target: Full length Human HDAC3 co-expressed with Human NCOR2 (Homo sapiens, UniProt O15379)
# [5] = molecular target: Human HDAC4 aa 101-1084(end) (Homo sapiens, UniProt P56524)
# Full length Human HDAC5 = Full length Human HDAC5 (Homo sapiens, UniProt Q9UQL6)
# Sequence of Full length Human HDAC5 (Q9UQL6 whole entry): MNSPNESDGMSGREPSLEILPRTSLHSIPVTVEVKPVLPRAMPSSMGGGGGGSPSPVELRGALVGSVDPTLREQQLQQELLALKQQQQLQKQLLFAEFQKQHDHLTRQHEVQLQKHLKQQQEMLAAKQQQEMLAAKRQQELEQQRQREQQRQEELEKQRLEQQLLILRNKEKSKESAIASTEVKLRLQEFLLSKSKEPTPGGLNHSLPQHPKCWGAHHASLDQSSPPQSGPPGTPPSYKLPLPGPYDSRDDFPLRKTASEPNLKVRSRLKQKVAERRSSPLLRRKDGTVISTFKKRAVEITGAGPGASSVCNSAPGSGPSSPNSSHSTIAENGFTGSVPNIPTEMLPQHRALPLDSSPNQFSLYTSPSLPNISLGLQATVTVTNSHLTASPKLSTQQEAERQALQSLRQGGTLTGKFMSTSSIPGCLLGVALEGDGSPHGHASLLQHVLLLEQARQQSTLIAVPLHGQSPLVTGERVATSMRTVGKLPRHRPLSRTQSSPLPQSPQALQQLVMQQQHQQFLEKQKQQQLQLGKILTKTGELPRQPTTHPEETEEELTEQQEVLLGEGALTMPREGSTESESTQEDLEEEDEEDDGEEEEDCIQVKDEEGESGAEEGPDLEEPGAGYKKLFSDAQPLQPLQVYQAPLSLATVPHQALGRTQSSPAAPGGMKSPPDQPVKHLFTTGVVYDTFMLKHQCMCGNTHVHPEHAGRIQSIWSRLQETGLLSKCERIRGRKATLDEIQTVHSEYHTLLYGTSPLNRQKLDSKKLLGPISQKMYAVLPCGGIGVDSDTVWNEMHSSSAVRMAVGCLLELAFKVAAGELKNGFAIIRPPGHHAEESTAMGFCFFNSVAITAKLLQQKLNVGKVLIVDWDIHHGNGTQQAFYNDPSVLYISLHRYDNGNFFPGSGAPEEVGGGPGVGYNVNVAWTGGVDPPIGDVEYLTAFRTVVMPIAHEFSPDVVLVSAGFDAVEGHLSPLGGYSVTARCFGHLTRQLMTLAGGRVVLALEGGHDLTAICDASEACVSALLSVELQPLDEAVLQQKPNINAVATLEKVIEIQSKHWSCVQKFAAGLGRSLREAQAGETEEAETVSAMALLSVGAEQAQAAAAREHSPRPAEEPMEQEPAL
# Sequence of Human HDAC4 aa 101-1084(end) (P56524 101-1084): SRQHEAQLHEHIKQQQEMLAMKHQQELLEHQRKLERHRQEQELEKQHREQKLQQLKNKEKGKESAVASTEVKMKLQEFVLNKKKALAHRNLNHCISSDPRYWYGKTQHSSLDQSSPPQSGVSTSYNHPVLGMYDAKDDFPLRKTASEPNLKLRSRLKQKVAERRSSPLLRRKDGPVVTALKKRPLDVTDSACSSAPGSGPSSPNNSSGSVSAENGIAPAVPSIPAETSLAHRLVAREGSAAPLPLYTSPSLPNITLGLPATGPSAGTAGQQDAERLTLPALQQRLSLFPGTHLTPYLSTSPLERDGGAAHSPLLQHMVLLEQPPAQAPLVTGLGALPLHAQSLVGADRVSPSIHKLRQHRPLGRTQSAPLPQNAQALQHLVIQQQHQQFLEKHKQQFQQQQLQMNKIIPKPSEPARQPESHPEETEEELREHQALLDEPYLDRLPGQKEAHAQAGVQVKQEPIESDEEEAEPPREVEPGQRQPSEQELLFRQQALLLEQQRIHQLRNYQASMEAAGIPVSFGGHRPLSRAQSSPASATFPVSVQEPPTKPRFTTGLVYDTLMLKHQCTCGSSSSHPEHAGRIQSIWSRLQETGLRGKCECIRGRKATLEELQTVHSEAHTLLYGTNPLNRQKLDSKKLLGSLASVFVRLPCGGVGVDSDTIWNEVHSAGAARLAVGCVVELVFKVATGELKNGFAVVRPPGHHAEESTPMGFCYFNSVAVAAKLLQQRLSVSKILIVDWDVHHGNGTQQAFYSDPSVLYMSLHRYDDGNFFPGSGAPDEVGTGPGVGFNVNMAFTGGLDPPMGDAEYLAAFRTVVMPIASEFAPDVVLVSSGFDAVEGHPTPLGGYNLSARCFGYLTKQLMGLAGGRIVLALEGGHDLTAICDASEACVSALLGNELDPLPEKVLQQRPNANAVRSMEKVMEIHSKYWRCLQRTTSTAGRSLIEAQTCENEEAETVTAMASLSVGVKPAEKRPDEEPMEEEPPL
# Sequence of Full length Human HDAC1 (Q13547 whole entry): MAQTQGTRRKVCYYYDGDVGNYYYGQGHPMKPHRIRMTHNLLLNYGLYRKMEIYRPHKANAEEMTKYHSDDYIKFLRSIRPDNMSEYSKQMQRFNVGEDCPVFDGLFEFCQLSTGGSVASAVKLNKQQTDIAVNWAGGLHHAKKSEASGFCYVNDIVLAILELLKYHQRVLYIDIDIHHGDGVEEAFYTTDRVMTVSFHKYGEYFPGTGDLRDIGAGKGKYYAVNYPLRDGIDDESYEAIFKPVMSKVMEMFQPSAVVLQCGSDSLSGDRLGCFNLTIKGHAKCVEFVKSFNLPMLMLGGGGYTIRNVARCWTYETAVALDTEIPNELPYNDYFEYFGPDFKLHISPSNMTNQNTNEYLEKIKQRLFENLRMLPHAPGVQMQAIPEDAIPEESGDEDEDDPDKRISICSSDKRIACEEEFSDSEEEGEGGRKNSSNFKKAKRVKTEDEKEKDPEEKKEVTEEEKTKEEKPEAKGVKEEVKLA
# Sequence of Human HDAC9 a.a. 604-1066 (Q9UKV0 604-1066 isoform Q9UKV0-5): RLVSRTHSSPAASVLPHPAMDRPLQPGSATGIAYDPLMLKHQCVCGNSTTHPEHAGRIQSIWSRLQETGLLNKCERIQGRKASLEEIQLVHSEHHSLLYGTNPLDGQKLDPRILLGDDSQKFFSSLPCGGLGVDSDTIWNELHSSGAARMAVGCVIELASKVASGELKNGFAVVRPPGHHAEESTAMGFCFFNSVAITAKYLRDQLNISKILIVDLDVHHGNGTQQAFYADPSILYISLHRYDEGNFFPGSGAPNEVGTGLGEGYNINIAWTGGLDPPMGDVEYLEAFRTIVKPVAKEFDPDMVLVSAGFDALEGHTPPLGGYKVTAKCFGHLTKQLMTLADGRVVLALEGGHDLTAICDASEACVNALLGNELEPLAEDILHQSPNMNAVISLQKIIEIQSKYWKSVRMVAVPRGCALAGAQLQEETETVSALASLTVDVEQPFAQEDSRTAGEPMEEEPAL
# Sequence of Full length Human HDAC3 co-expressed with Human NCOR2 (O15379 whole entry, the tested form may be a part): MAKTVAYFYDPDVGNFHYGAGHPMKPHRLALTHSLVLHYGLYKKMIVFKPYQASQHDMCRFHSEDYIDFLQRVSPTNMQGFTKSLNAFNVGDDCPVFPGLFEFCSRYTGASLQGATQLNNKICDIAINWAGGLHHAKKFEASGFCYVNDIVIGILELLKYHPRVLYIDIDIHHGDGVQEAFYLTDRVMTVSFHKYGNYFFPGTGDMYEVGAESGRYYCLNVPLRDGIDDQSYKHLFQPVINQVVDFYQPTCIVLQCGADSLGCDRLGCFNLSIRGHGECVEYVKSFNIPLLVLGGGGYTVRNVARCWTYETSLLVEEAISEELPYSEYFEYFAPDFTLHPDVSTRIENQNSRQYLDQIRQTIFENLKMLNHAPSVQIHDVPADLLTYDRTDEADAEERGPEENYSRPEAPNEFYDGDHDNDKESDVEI
# Sequence of Full length Human HDAC3 co-expressed with Human NCOR2 (Q9Y618 395-489 partner limits assumed): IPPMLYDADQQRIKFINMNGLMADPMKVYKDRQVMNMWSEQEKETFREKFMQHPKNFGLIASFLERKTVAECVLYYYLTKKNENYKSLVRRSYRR
# Sequence of Full length Human HDAC2 (Q92769 whole entry): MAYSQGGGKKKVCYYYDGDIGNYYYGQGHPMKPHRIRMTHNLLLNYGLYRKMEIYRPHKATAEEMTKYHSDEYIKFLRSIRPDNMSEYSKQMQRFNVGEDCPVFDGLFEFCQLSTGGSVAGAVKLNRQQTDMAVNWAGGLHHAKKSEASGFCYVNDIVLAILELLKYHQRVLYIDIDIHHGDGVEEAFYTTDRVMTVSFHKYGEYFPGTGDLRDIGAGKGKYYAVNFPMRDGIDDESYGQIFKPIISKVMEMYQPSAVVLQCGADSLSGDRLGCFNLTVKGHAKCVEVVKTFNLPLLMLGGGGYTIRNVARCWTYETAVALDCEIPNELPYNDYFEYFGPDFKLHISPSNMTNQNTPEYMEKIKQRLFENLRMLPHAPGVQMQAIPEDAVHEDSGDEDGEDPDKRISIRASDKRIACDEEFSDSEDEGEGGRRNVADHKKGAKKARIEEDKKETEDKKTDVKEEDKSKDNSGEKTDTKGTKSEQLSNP
EC50 [1] [µM],EC50 [2] [µM],IC50 [3] [µM],IC50 (Full length Human HDAC1) [µM],IC50 (Full length Human HDAC2) [µM],IC50 (Full length Human HDAC11) [µM],IC50 [4] [µM],IC50 [5] [µM],IC50 (Full length Human HDAC5) [µM],SMILES
0.3,> 10,–,–,–,–,–,–,–,O=C(NO)c1cc(F)c2c(c1)CCN(Cc1ccccc1)C2 [compound 32]
–,–,1 to 10,10 to 100,10 to 100,1 to 10,1 to 10,1 to 10,1 to 10,"O=C(NO)c1cc(F)c2c(c1)C[C@@H]1CCCCN1C2 (single isomer, unassigned) [compound 93]"
–,–,10 to 100,> 100,> 100,0.001 to 0.1,10 to 100,10 to 100,10 to 100,"O=C(NO)c1ccc(CN2C[C@@H]3CC[C@H]2CO3)c(F)c1 (single isomer, unassigned) [compound 172]"
1.4,> 10,–,–,–,–,–,–,–,"O=C(NO)c1ccc(CN2CCC3(CCCCC3)C2)c(F)c1 [compound 75, 4-((2-Azaspiro[4.5]decan-2-yl)methyl)-3-fluoro-N-hydroxybenzamide]"
–,–,10 to 100,10 to 100,10 to 100,10 to 100,1 to 10,10 to 100,> 100,"O=C(NO)c1ccc2c(c1)CN1CCCCN1C2 [compound 106, N-hydroxy-1,2,3,4,6,11-hexahydropyridazino[1,2-b]phthalazine-8-carboxamide]"
2.1,> 10,10 to 100,10 to 100,10 to 100,1 to 10,1 to 10,10 to 100,10 to 100,O=C(NO)c1cc(F)c2c(c1)CCN(CC13CC4CC(CC(C4)C1)C3)C2 [compound 34]
2.9,> 10,> 100,10 to 100,10 to 100,1 to 10,10 to 100,10 to 100,> 100,O=C(NO)c1cc(F)c2c(c1)CCN(C1CC3(CCCCC3)C1)C2 [compound 16]
2.6,2.5,1 to 10,10 to 100,10 to 100,> 100,1 to 10,1 to 10,1 to 10,O=C(NO)c1ccc(CN2CC3CCC2CO3)c(F)c1 (stereo not drawn) [compound 58]
0.2,> 10,0.1 to 1,1 to 10,10 to 100,10 to 100,1 to 10,1 to 10,1 to 10,O=C(NO)c1ccc(CN2CC3CCC(C2)O3)c(F)c1 [compound 53]
–,–,1 to 10,> 100,> 100,> 100,10 to 100,10 to 100,10 to 100,"O=C(NO)c1cc(F)c2c(c1)C[C@H]1CCCCN1C2 (single isomer, unassigned) [compound 94]"
–,–,1 to 10,10 to 100,10 to 100,10 to 100,1 to 10,1 to 10,10 to 100,"O=C(NO)c1ccc(CN2C[C@H]3CC[C@@H]2CO3)c(F)c1 (single isomer, unassigned) [compound 173]"

SMILES,EC50 [1] [µM],EC50 [2] [µM],IC50 [3] [µM],IC50 (Full length Human HDAC1) [µM],IC50 (Full length Human HDAC2) [µM],IC50 (Full length Human HDAC11) [µM],IC50 [4] [µM],IC50 [5] [µM],IC50 (Full length Human HDAC5) [µM]
"O=C(NO)c1cc(F)c2c(c1)CCN1CCC[C@@H]21 (single isomer, unassigned) [compound 79]",0.44,> 10,0.1 to 1,1 to 10,10 to 100,> 100,1 to 10,1 to 10,1 to 10
